Here are results for 1 compound from EP0319906A2, “Novel quinoline derivatives, processes for preparation thereof and antibacterial agent containing them” (Dainippon Pharmaceutical Co., Ltd., priority 1987, dated 1989).

One data set in a line: in vivo. The settings on record: mouse, po, orally given to male mice (ddY), dead mice counted after 7 days, Behrens-Kaerber method, read-out: LD₅₀. How it is done:
A suspension containing each of compounds of this invention in various concentrations was orally given to male mice (ddY) at a dose of 0.1 ml per 10 g of body weight. The number of dead mice was counted after 7 days, and the value of median lethal dose (LD₅₀, mg/kg) was calculated in accordance with the Behrens-Kaerber method.

For data set [1], the system named is C. Trachomatics G/ur 1448. Kind of data set: Antichlamydia activity, MIC in McCoy cells (inclusion bodies). The settings on record: C. Trachomatics G/ur 1448; McCoy cells, 36 °C for 40-48 hours; calculated for free base; read-out: minimum inhibitory concentrations (MIC). The class given is cell-based.
For data set [2], the system named is C. Trachomatics G/ur 1242. The data set is described as above. The class given is cell-based. The conditions noted are these: C. Trachomatics G/ur 1242; McCoy cells, 36 °C for 40-48 hours; calculated for free base; read-out: minimum inhibitory concentrations (MIC).
A further data set concerns C. Trachomatics G/ur 931. The data set is described as above. The class given is cell-based. The settings on record: C. Trachomatics G/ur 931; McCoy cells, 36 °C for 40-48 hours; calculated for free base; read-out: minimum inhibitory concentrations (MIC).
In data set [3] the test system is C. Trachomatics G/ur 1317. The description is as above. The class given is cell-based. The settings on record: C. Trachomatics G/ur 1317; McCoy cells, 36 °C for 40-48 hours; calculated for free base; read-out: minimum inhibitory concentrations (MIC).

Each structure is given as a SMILES string. ≈ marks a conversion by molar mass, not a printed value.

As to `Cc1c(F)c(N2C[C@@H](C)N[C@@H](C)C2)c(F)c2c1c(=O)c(C(=O)O)cn2C1CC1` [Compound 1, 1-cyclopropyl-6,8-difluoro-5-methyl-7-(cis-3,5-demethyl-1-piperazinyl)-1,4-dihydro-4-oxoquinoline-3-carboxylic acid], the LD50 at 168 h in the data set “in vivo” was over 2000 mg/kg. The MIC in data set [1] is 0.025 µg/mL (≈ 0.0639 µM); in data set [2], 0.025 µg/mL (≈ 0.0639 µM); with C. Trachomatics G/ur 931, 0.013 µg/mL (≈ 0.0332 µM); in data set [3], 0.013 µg/mL (≈ 0.0332 µM).
